The text below walks through data of the Deep4Chem optical property database.

This data set in a line: photoluminescence quantum yield (fraction); solvent given as SMILES.
Setting [1] is: in c1ccc2c(c1)c1ccccc1n2-c1ccc(-c2ccc(-n3c4ccccc4c4ccccc43)cc2)cc1.

As to `CCN(CC)c1ccc2cc(/C(Cl)=C/C=C/C(=C(C#N)C#N)c3ccc(N(c4ccccc4)c4ccccc4)cc3)c(=O)oc2c1`, the photoluminescence quantum yield (in CC(C)=O) amounted to 0.015; the photoluminescence quantum yield (in CCOC(C)=O) turned out to be 0.028; the photoluminescence quantum yield (in CN(C)C=O) stood at 0.002; the photoluminescence quantum yield (in CS(C)=O) was 0.003; the photoluminescence quantum yield (in Cc1ccccc1) amounted to 0.098; the photoluminescence quantum yield (in ClCCl) is 0.018.
On to `Cc1ccccc1C1=C2C=CC(=[N+](C)C)C=[C]2[Ge]([CH3])([CH3])[c]2cc(N(C)C)ccc21`, for which the photoluminescence quantum yield (in O) was determined as 0.34.
In the case of `CC1(C)C(/C=C/C=C/c2cc3ccc(O)cc3oc2=O)=[N+](CCCS(=O)(=O)[O-])c2ccc(S(=O)(=O)O)cc21`, the photoluminescence quantum yield reads like this: (in CCO) 0.01; (in CS(C)=O) 0.017; (in O) 0.011.
`Cc1cc(C)n2c1C=[N+]1[N+](=C3C=NC=CN3[B-]1(F)F)[B-]2(F)F` came in with a photoluminescence quantum yield (in ClCCl) of 0.57.
For `Cc1ccc(C2=C3C=CC(Nc4ccccc4)=[N+]3[B-](F)(F)n3c(Nc4ccccc4)ccc32)cc1`, the photoluminescence quantum yield (in CO) was 0.45.
`COC(=O)c1ccc(/C=C2\N=C(c3ccccc3)OC2=O)cc1` returned a photoluminescence quantum yield (in C1COCCO1) of 0.
In turn, `COc1ccc2cc(-c3cc(-c4ccccc4)c4n3[B-](F)(F)[N+]3=C5C=NC=CN5[B-](F)(F)[N+]3=C4)ccc2c1` registered a photoluminescence quantum yield (in ClCCl) of 0.43.
With `COc1cc2c(cc1C=C(C#N)C#N)c1ccccc1n2C`, the photoluminescence quantum yield (in C1CCOC1) came out at 0.002; the photoluminescence quantum yield (in CC#N) amounted to 0.003; the photoluminescence quantum yield (in CCOC(C)=O) was 0.004; the photoluminescence quantum yield (in CN(C)C=O) was 0.005; the photoluminescence quantum yield (in CO) was 0.003; the photoluminescence quantum yield (in CS(C)=O) was 0.006. Also, the photoluminescence quantum yield was found to be 0.003 (in Cc1ccccc1), 0.004 (in ClC(Cl)Cl) and 0.004 (in ClCCl).
On to `COCCN(CCOC)c1ccc(/C=C/c2sc3c4nc(C)sc4ccc3[n+]2C)cc1`, for which, under “in ClC(Cl)Cl”, the photoluminescence quantum yield worked out at 0.05.
`CCCCC1(CCCC)c2cc(C#Cc3ccc4ccc5cccc6ccc3c4c56)ccc2-c2ccc(N(c3ccccc3)c3ccccc3)cc21` had a photoluminescence quantum yield (in Cc1ccccc1) of 0.72.
`FC(F)(F)C(F)(F)C(F)(F)C(F)(F)C(F)(F)C(F)(F)CCOc1nnc(Cl)nn1`: the photoluminescence quantum yield amounted to 0.4 (in ClCCl) and 0.26 (in OCC(F)(F)F).
Consider `C/C=C/c1ccc(OC)cc1`, for which the photoluminescence quantum yield was determined as 0.27 (in CC#N) and 0.35 (in CCCCCC).
`CCOC(CN1C(=O)C2=C(c3cc4cc(C(C)(C)C)cc(C(C)(C)C)c4o3)N(CC(OCC)OCC)C(=O)C2=C1c1cc2cc(C(C)(C)C)cc(C(C)(C)C)c2o1)OCC` gave a photoluminescence quantum yield (in ClC(Cl)Cl) of 0.75.
Compound `COC(=O)CC1(C(=O)OC)Oc2c(c(C(C)=O)c3c(c2C(C)=O)OCO3)O1` displayed a photoluminescence quantum yield (in CC#N) of 0.62.
Regarding `c1ccc2c(C3=C(c4cccc5ccccc45)c4cccc5c4c(cc4nc6ccccc6nc45)O3)cccc2c1`, the photoluminescence quantum yield (in ClCCl) is 0.32.
In the case of `CN(C)c1ccc(C2=CC3=C(c4ccc(C=O)cc4)[C@H]4c5ccccc5[C@]3(S2)c2ccccc24)cc1`, the photoluminescence quantum yield (in ClCCl) is 0.46.
On to `CCN(CC)c1ccc2c(c1)oc(=O)c1c(=O)oc3cc(C#Cc4ccc(N(C)C)cc4)ccc3c12`, for which the photoluminescence quantum yield (in ClCCl) was 0.04.
The same measure, in the same setting: next, `CCCCC(CC)COc1ccc2nc(-c3ccc(-c4ccccc4)s3)sc2c1` (configuration not stated): 0.58.
`COC(=O)c1cc(=O)n(C)c2cc(-c3ccccc3OC)sc12` yielded a photoluminescence quantum yield (in CC#N) of 0.61 and a photoluminescence quantum yield (in ClCCl) of 0.51.
`CC1=C(C#Cc2ccccc2)C2=Cc3c(C#Cc4ccccc4)c(C)c(C)n3[B-](F)(F)[N+]2=C1C` showed a photoluminescence quantum yield (in CC#N) of 1.
`O=P1(c2ccccc2)C(c2ccc(C(F)(F)F)cc2)=Cc2ccccc21` (configuration not stated) gave a photoluminescence quantum yield (in C1CCOC1) of 0.65.
In turn, `Cc1cc(C)c(C2=C3C=C(/C=C/C(=O)OCc4ccccc4)C=[N+]3[B-](F)(F)n3cc(/C=C/C(=O)OCc4ccccc4)cc32)c(C)c1` returned a photoluminescence quantum yield (in ClCCl) of 0.35.
Regarding `F[B-]1(F)n2c(c3cccc4cccc2c43)=Nc2cccc[n+]21`, the photoluminescence quantum yield was 0.99 (in C1CCOC1); 0.99 (in CC#N); 0.99 (in CCCCCC); 0.99 (in Cc1ccccc1); 0.99 (in ClCCl).
`Cc1ccc(-n2c(-c3ccccc3NS(=O)(=O)c3ccc(C)cc3)nc3c4ccccc4c4ccccc4c32)cc1` showed a photoluminescence quantum yield (in Cc1ccccc1) of 0.007.
For the compound `COc1cc(OC)cc(C(=O)OCc2c(C)c(=O)n3c(=O)c(C)c(C)n23)c1`, under “in CCO”, the photoluminescence quantum yield is 0.638.
In turn, `O=c1cc(C(F)(F)F)c2cc3c4c(c2o1)CCCN4CCC3` had a photoluminescence quantum yield (in CCC#N) of 0.76; a photoluminescence quantum yield (in CCCCCCCl) of 0.95; a photoluminescence quantum yield (in CCCCl) of 0.77; a photoluminescence quantum yield (in CCO) of 0.62; a photoluminescence quantum yield (in OCC(F)(F)F) of 0.47.
In the case of `CCCCCCc1ccc2c3c(ccc2c1)O[B-](F)(F)[N+](c1ccc([N+]2=Cc4c(ccc5cc(CCCCCC)ccc45)O[B-]2(F)F)cc1)=C3`, the photoluminescence quantum yield runs as follows: (in C1CCOC1) 0.35; (in CC#N) 0.3; (in Cc1ccccc1) 0.43; (in ClCCl) 0.44.
As for `N#Cc1c(N2CCCCC2)cc(-c2ccc(-c3ccccc3)s2)c2c1CCc1ccccc1-2`, for the setting “in C1CCOC1”, the photoluminescence quantum yield was 0.23.
Same read-out and setting: next, `FC(F)(F)C(F)(F)C(F)(F)C1=NC2=C(c3ccccc3)C=C3c4cc(-c5ccccc5)c5nc(C(F)(F)C(F)(F)C(F)(F)F)nc6c(-c7ccccc7)cc(c4c56)=C4C=C(c5ccccc5)C(=N1)C2C34` (configuration not stated): 0.85.
Regarding `COc1ccc(-c2c3ccccc3c(-c3ccc(OC)cc3)c3ccccc23)cc1`, the photoluminescence quantum yield (in ClCCl) was 0.59.
With `CCn1c2ccccc2oc2c(C#N)c3oc4ccccc4oc3c(C#N)c21`, the photoluminescence quantum yield (in ClC(Cl)Cl) amounted to 0.34.
For `CN(C)c1ccc(/C=C/c2ncccn2)cc1`, the photoluminescence quantum yield (in ClCCl) came out at 0.01.
For `CCCCCCn1c2cc(/C=C(\C#N)c3ccccc3)ccc2c2ccc(/C=C(\C#N)c3ccccc3)cc21`, for the setting “in ClC(Cl)Cl”, the photoluminescence quantum yield was 0.026.
As to `CCC(C)(C)c1ccc2c(c1)C(CCOC)(CCOC)c1cc(-c3ccc(-c4ccc5c(c4)C(CCOC)(CCOC)c4cc(C(C)(C)CC)ccc4-5)cc3)ccc1-2`, the photoluminescence quantum yield (in C1CCCCC1) was determined as 0.9.
Under “in ClCCl”, `O=P1(c2ccccc2)c2cccc3ccc4ccc1n4c23` (configuration not stated) gave a photoluminescence quantum yield of 0.36.
Same read-out and setting: next, `C(=C\c1ccncn1)/c1ccc(N(c2ccccc2)c2ccc(/C=C/c3ccncn3)cc2)cc1`: 0.73.
Turning to `c1ccc2c(c1)c1ccccc1n2-c1ccc2cc(-c3ccc(-c4ccc(-c5cc6ccc(-n7c8ccccc8c8ccccc87)cc6o5)cc4)cc3)oc2c1`, the photoluminescence quantum yield (in Cc1ccccc1) worked out at 0.96 and the photoluminescence quantum yield under setting [1] stood at 1.
Turning to `CCC1=C(C)C2=Cc3c4ccccc4c4n3[B-](c3ccncc3)(Oc3ccccc3-4)[N+]2=C1C=Cc1ccc(OC)cc1` (configuration not stated), the photoluminescence quantum yield is, setting by setting: (in CC#N) 0.37; (in CCCCCC) 0.36; (in Cc1ccccc1) 0.35; (in ClCCl) 0.35.
Regarding `O=[N+]([O-])c1ccc(C#Cc2ccc3ccc(C#Cc4ccc([N+](=O)[O-])cc4)cc3c2)cc1`, for the setting “in ClCCl”, the photoluminescence quantum yield came to 0.007.
Under “in ClC(Cl)Cl”, `CCCN1c2ccccc2Sc2cc(/C=C\c3cc(=O)oc4cc(C)c(Cl)cc34)ccc21` came in with a photoluminescence quantum yield of 0.77.
On to `C#CCNC1=C2C=C(c3cc4n(c3)[B-](F)(F)[N+]3=CC=CC3=C4c3c(C)cc(C)cc3C)C(C)=[N+]2[B-](F)(F)n2c(C)ccc21`, for which the photoluminescence quantum yield runs as follows: (in C1CCCCC1) 0.42; (in CCOC(C)=O) 0.06.
The compound `C[Si]1(C)c2ccccc2-c2ccccc21` showed a photoluminescence quantum yield (in ClCCl) of 0.14.
Regarding `CCCN1c2ccccc2Sc2cc(/C=C\c3cc(=O)oc4ccccc34)ccc21`, the photoluminescence quantum yield (in ClC(Cl)Cl) was determined as 0.5.
With `C[C@]12SC(=O)C=C1c1nc(-c3ccc(O)cc3)[nH]c1C1=CC(=O)S[C@@]12C`, the photoluminescence quantum yield (in CC#N) stood at 0.16.
Take `C/C=C/c1cccc(OC)c1`: the photoluminescence quantum yield worked out at 0.24 (in CC#N) and 0.31 (in CCCCCC).
Regarding `COc1cc(/C=C/C(=O)O)ccc1O`, the photoluminescence quantum yield (in O) stood at 0.002.
For the setting “in ClCCl”, `Fc1ccc(-c2ccc(-c3cc(-c4ccccn4)nc(-c4ccccn4)c3)cc2)c(F)c1` came in with a photoluminescence quantum yield of 0.16.
Regarding `COc1ccc(C2=CC(c3ccc(OC)cc3)=[O+][B-](C(C)=O)(C(C)=O)O2)cc1`, the photoluminescence quantum yield runs as follows: (in CC#N) 0.7; (in ClC(Cl)(Cl)Cl) 1.
`N#Cc1cc2ccc(cc2)c2cccc3cccc(c4ccc(cc4)cc(C#N)c4ccc(cc4)c4cccc5cccc(c6ccc1cc6)c54)c32` returned a photoluminescence quantum yield (in Cc1ccccc1) of 0.55.
Consider `COCCOCCOCCOCC(COCCOCCOCCOC)Oc1cc(/C=C/c2ccc(/C=C(\C#N)c3ccncc3)cc2)c(OC(COCCOCCOCCOC)COCCOCCOCCOC)cc1/C=C/c1ccc(/C=C(\C#N)c2ccncc2)cc1`, for which, under “in ClCCl”, the photoluminescence quantum yield came to 0.45.
The compound `CCOC(=O)/N=c1/oc2ccc(OC)cc2cc1C#N` registered a photoluminescence quantum yield (in ClCCl) of 0.047.
Still for that read-out and setting: next, `F[B-]1(F)Oc2ccc(Br)cc2-c2c3c(c4c([n+]21)CCc1ccccc1-4)CCc1ccccc1-3`: 0.23.
Compound `CC1(C)c2ccccc2N(c2ccccc2)c2ccc(-c3ccc(-c4ccc5c(c4)C(C)(C)c4ccccc4N5c4ccccc4)c4nsnc34)cc21` showed a photoluminescence quantum yield under setting [1] of 0.92.
As to `COc1cc(/C=C/c2nc3ccccc3s2)c(OC)cc1/C=C/c1nc(C)nc(/C=C/c2cc(OC)c(/C=C/c3nc4ccccc4s3)cc2OC)n1`, the photoluminescence quantum yield (in C1CCOC1) is 0.54, the photoluminescence quantum yield (in CC#N) came to 0.03, the photoluminescence quantum yield (in ClC(Cl)Cl) was found to be 0.5 and the photoluminescence quantum yield (in ClCCl) was 0.46.
On to `c1ccc(N2c3ccccc3Sc3cc(-c4cccc5nc6ccccc6cc45)ccc32)cc1`, for which the photoluminescence quantum yield amounted to 0.0076 (in CC#N), 0.213 (in CCCCCC), 0.17 (in CCOCC) and 0.0635 (in ClCCl).
